Laboratory results as given in paper PMC5632533, “Mechanisms of action and in vivo antibacterial efficacy assessment of five novel hybrid peptides derived from Indolicidin and Ranalexin against Streptococcus pneumoniae” (PeerJ, 2017).

Tests used:
[1] = test system: S. pneumoniae; test: ATP efflux assay; format: cell-based, Streptococcus pneumoniae; settings: peptides 125 µg/ml (RN7-IN7 500 µg/ml); for ATP released, Average 1hr / ATP released, Average 2hr / ATP released, Average 3hr: raw data sheet, mean of 3
Experimental: The amount of ATP released from pneumococcal cells incubated with hybrid peptides was measured as described previously, with a slight modification ([Tanida et al., 2006]). The ATP determination kit (Molecular Probes, Eugene, OR, USA) was used to measure the amount of ATP released based on the luciferin/luciferase method according to the manufacturer’s instructions. Briefly, S. pneumoniae were grown overnight on Columbia agar with 5% sheep blood. Bacterial suspensions were spectrophotometrically adjusted to (1 × 10^7 CFU/ml) and incubated with hybrid peptides RN7-IN10, RN7-IN9, RN7-IN8 and RN7-IN6 at 125 µg/ml and with RN7-IN7 at 500 µg/ml. The amount of ATP released form the pneumococcal cells were measured at three time points 1, 2 and 3 h. The samples were then centrifuged at 5,000 rpm for 5 min, and ATP efflux was subsequently estimated using an ATP standard curve. Values were obtained from three independent experiments. Ceftriaxone and erythromycin were used as positive controls.

[2] = test system: S. pneumoniae genomic DNA; test: Gel retardation assay (DNA retardation); format: binding, Streptococcus pneumoniae; settings: 250 ng genomic DNA; 0.24–500 µg/ml tested; 10 min, room temperature; 1% agarose gel
Experimental: This assay was carried out as described previously, with minor modifications ([Li et al., 2013]). S. pneumoniae were grown overnight on Columbia agar with 5% sheep blood. A few bacterial colonies were transferred into a 1.5 ml eppendorf tube containing phosphate buffered saline (PBS). The bacterial cells were centrifuged, PBS was discarded and 50 µl of TE buffer containing 0.08 g/ml of lysozyme and 150 U/ml of mutanolysin was added to the cells. Genomic DNA was isolated from pneumococcal cells using DNeasy Blood & Tissue Kit (Qiagen, Hilden, Germany), following the manufacturer’s giudlines. The optical density ratio of 260 nm and 280 nm (OD260∕OD280 = 1.83) was used to measure the purity of the DNA. Genomic DNA (250 ng) was incubated with hybrid peptides at various concentrations (0.24–500 µg/ml) in 12 μl at room temperature for 10 min. 2 μl of loading buffer were added to the mixture and the migration of DNA through 1% agarose gel was evaluated by electrophoresis in 1 × Tris borate–EDTA buffer (45 mM Tris–borate and 1 mM EDTA at pH 8.0) and spotted by the fluorescence of gel stain (Gel Red, BIOTIUM, Fremont, CA, USA). The natural peptide indolicidin was used as positive controls, ceftriaxone and erythromycin were used as negative controls.

[3] = test system: S. pneumoniae (highly virulent strain); test: In vivo antipneumococcal activity, pneumococcal bacteremia (lethal systemic infection) model; set-up: species or system mice
Experimental: Two pneumococcal infection models developed previously in our lab ([Le et al., 2015]) were used to assess the therapeutic efficacy of peptides in vivo. The systemic infection model was used to mimic pneumococcal bacteremia in humans and the pneumococcal pneumonia model was used to mimic pneumococcal pneumonia in humans. A highly virulent strain was used in both the models. The bacterial isolate was grown overnight on Columbia agar with 5% sheep blood at 37 °C under 5% CO2. The bacterial suspension was adjusted to OD625 0.08-0.1 (1 ∼ 2 × 10^8 CFU/ml). Mice tested for lethal systemic infection were inoculated with 1.5 × 10^2 CFU/mouse (100 μl) via IP route. Mice used to assess the Pneumococcal pneumonia model were inoculated with pneumococcal cells of 5 × 10^3 CFU/mouse (50 μl) via the intrathoracic route.
After 1 hr of inoculation, Mice receiving treatment were randomized and divided into six groups. RN7-IN10 and RN7-IN8 were tested at three different doses for each (5 mg/kg, 10 mg/kg and 20 mg/kg) using a group of 10 mice. Graded doses of ceftriaxone (5 mg/kg, 10 mg/kg, […], 40 mg/kg and 80 mg/kg) were also tested to assess the in vivo antibacterial activity of this antibiotic. Only mice injected with PBS were served as uninfected control. Mice injected with bacterial inoculum were used as untreated control group and given sterile distilled water only. Survival of mice was documented for seven days or until death. After seven days, the experiment was ended, the blood and homogenates of the five major organs (kidney, brain, spleen, liver and lung) of the surviving mice were plated on Columbia agar with 5% sheep blood, to detect the presence of pneumococcal cells. […]

[4] = test system: Resistant S. pneumoniae; settings: incubation with resistant S. pneumoniae; ref Jindal et al., 2015; cited from earlier work
[5] = test system: Streptococcus pneumoniae; settings: 30 pneumococcal clinical isolates; earlier study; ref Jindal et al., 2015; cited from earlier work
From the text: Table 1 Sequences and physicochemical properties of the template and hybrid AMPs. | column: MIC^a || One of the advantageous alternatives to today’s antibiotics is antimicrobial peptides (AMPs) ([Deslouches et al., 2013]; [Sánchez-Vásquez et al., 2013]). AMPs are synthesized by almost all living beings as the first line of defense in their immune system against microbial infection. Many aspects favor AMPs over traditional antibiotics: a broad range of antimicrobial activity against pathogenic micro-organisms (including viruses, parasites, bacteria, and fungi), microbial pathogens are less efficient in developing resistance against AMPs, as killing take place in a short contact time and AMPs c ...

[6] = test system: S. pneumoniae; test: Transmission electron microscopy (TEM) of treated cells; format: cell-based, Streptococcus pneumoniae; settings: 10^8 CFU/ml in CAMHB; 8 × MIC (125 µg/ml; RN7-IN7 500 µg/ml); 1 h, 37 °C, 5% CO2
Experimental: Bacteria were prepared for TEM according to the guidelines of the Electron Microscopy Unit at the Faculty of Medicine, University of Malaya. S. pneumoniae cultures were grown overnight on Columbia agar with 5% sheep blood and suspended in cationally adjusted Mueller-Hinton broth (CAMHB) at 10^8 CFU/ml. […] Cells in cationally adjusted Mueller-Hinton broth (CAMHB) were used as an untreated control. After an hour of incubation, the pneumococcal cells were centrifuged to discard the medium, washed thrice with 10 mM phosphate buffer saline at pH 7.3 and fixed overnight in 4% (v/v) glutaraldehyde. All samples were washed twice with cacodylate buffer, incubated for 2 h in osmium tetroxide buffer (OsO4 1: 1 cacodylate), washed twice with cacodylate buffer and then incubated overnight in cacodylate buffer. All the samples were washed with distilled water twice and incubated for 10 min with uranyl acetate. After this, all samples were then washed twice with distilled water and dehydrated in an ascending series of ethanol: 35% (10 min), 50% (10 min), 70% (10 min), 95% (15 min), and thrice in 100% ethanol (15 min). After dehydration, samples were incubated with propylene oxide (15 min), propylene oxide 1:1 Epon (1 h), propylene oxide 1:3 Epon (2 h) and finally incubated overnight with Epon. All the samples were embedded in agar 100 resin at 37 °C for 5 hr and maintained at 60 °C until viewing. Reichert Ultramicrotome copper grids 3.05 mm (300 square mesh) (Agar Scientific, Essex, United Kingdom) were used to prepare Ultrathin sections. Ethanol-based uranyl acetate and lead citrate were used to stain the samples for 5 min. Transmission electron microscope (Leo Libra 120) was used to capture the images.

[7] = 1 × 10^7 CFU/ml, luciferin/luciferase, ATP standard curve, mean ± SD, three independent experiments

Row | Molecule | ATP released from pneumococcal cells after 1 h [1, 7] | ATP released, Average 1hr [1] | ATP released, Average 2hr [1] | ATP released, Average 3hr [1] | concentration inhibiting migration of genomic DNA through the agarose gel [2] | MIC, minimum inhibitory concentration [5] | also measured
1 | CO/N=C(\C(=O)N[C@@H]1C(=O)N2C(C(=O)O)=C(CSc3nc(=O)c(=O)[nH]n3C)CS[C@H]12)c1csc(N)n1 [ceftriaxone, reference compound] | 5.24 ± 1.43 pM | 5.248 pM | 3.522 pM | 3.119 pM | > 500 µg/mL |  | survival of infected mice up to seven days post-infection ([3]; 1.5 × 10^2 CFU/mouse IP, treatment IP 5 mg/kg (peptides at 1 h, 12 h, 24 h post-infection), 10 mice): 10%; survival of infected mice up to seven days post-infection ([3]; 1.5 × 10^2 CFU/mouse IP, treatment IP 10 mg/kg (peptides at 1 h, 12 h, 24 h post-infection), 10 mice): 30%; survival of infected mice up to seven days post-infection ([3]; 1.5 × 10^2 CFU/mouse IP, treatment IP 20 mg/kg (peptides at 1 h, 12 h, 24 h post-infection), 10 mice): 40%; survival of infected mice up to seven days post-infection ([3]; treatment IP 40 mg/kg): 70%; survival of infected mice up to seven days post-infection ([3]; treatment IP 80 mg/kg): 90%; time to bactericidal activity / elimination of S. pneumoniae [4]: > 240 min
2 | CC[C@H]1OC(=O)[C@H](C)[C@@H](O[C@H]2C[C@@](C)(OC)[C@@H](O)[C@H](C)O2)[C@H](C)[C@@H](O[C@@H]2O[C@H](C)C[C@H](N(C)C)[C@H]2O)[C@](C)(O)C[C@@H](C)C(=O)[C@H](C)[C@@H](O)[C@]1(C)O [erythromycin, reference compound] | 0.49 ± 0.004 pM | 0.4933 pM | 0.4736 pM | 0.3124 pM | > 500 µg/mL |  | 
3 | FLGGLIKIVPAMICAVTKKC-OH [Ranalexin, natural template antimicrobial peptide] |  |  |  |  |  | 62.5 µg/mL | 
4 | FLGGLIKPWWPWRR-NH2 [RN7-IN7, hybrid peptide of ranalexin (residues 1-7) and indolicidin (residues 7-13)] | 22.35 ± 0.9 pM |  |  |  |  | 62.5 µg/mL | TEM: detachment of cell wall from cell membrane [6]: partial disconnection of the cell wall from the cell membrane; ATP released from pneumococcal cells after 3 h [1, 7]: 13.02 ± 2.26 pM
5 | ILPWKWPWWPWRR-NH2 [Indolicidin, natural template (parent) antimicrobial peptide] |  |  |  |  | 62.5 µg/mL | 15.62 to 31.25 µg/mL | 
